Remaining activity data for 31 compounds are collected here from PMC8286840, “Identifying SARS-CoV-2 antiviral compounds by screening for small molecule inhibitors of Nsp3 papain-like protease” (Biochemical Journal, 2021).

Test [1] deals with T1, SARS-CoV-2 PLpro (nsp3 1564–1878) (Severe acute respiratory syndrome coronavirus 2, UniProt P0DTD1). The test can be described thus: biochemical. Also on record: FRET-quenched peptide (Pro3) cleavage by PLpro, 10 min pre-incubation, slope over 20 min, normalised to no-compound control. To be noted: high concentration screen, read-out: % of control remaining.
The target of test [2] is T1, SARS-CoV-2 PLpro (nsp3 1564–1878). Put plainly: biochemical. Also on record: FRET-quenched peptide (Pro3) cleavage by PLpro, 10 min pre-incubation, slope over 20 min, normalised to no-compound control. Particulars: low concentration screen, read-out: % of control remaining.

Counter-ions that a name gives are not always drawn. Like-named read-outs stand apart in the source and are kept apart here.

Turning to `COC(=O)CC(NC(=O)OC(C)(C)C)C(=O)CF` [BOC-D-FMK], the remaining activity at 3.75 µM is 93.9% in test [1] (Well no.=6868) and 95.4% in test [1] (Well no.=7644). The results for the remaining activity at 1.25 µM in test [2] (Well no.=6868) and in test [2] (Well no.=7644) were 95.7% and 101%, respectively.

As to `COc1ccccc1N1CCN(CCCCNC(=O)c2ccc3ccccc3c2)CC1` [BP897], the remaining activity at 3.75 µM in test [1] (Well no.=6013) is 98.6%. The remaining activity at 1.25 µM in test [2] (Well no.=6013) came to 106%.

Take `COc1ccccc1N1CCN(CCCCNC(=O)c2ccc3ccccc3c2)CC1` [BP 897]: in test [1] (Well no.=35), the remaining activity at 3.75 µM worked out at 93.4%. In test [2] (Well no.=35), the remaining activity at 1.25 µM is 95.8%.

Take `Cn1cnc2cc3c(Nc4cccc(Br)c4)ncnc3cc21` [BPIQ-I]: the remaining activity at 3.75 µM in test [1] (Well no.=2357) is 99%. Further, the remaining activity at 1.25 µM in test [2] (Well no.=2357) was 101%.

With `CCCC[C@@H](NC(=O)[C@@H](Cc1cn(C(=O)OC)c2ccccc12)NC(=O)[C@H](CC(C)(C)C)NC(=O)N1[C@H](C)CCC[C@@H]1C)C(=O)O` [BQ-788 (sodium salt)], the remaining activity at 3.75 µM in test [1] (Well no.=8560) amounted to 101%. In addition, in test [2] (Well no.=8560), the remaining activity at 1.25 µM turned out to be 108%.

As to `Cc1nn(C)c2c1C(c1ccc(C(F)(F)F)cc1)C(C#N)=C(N)O2` (stereo not drawn) [BQU57], the remaining activity at 3.75 µM in test [1] (Well no.=7957) came to 94.7%. In addition, the remaining activity at 1.25 µM in test [2] (Well no.=7957) is 103%.

`COC(=O)c1ccc2c(c1)nc(NC(=O)c1ccccc1)n2CCCc1ccccc1` [BRD4770]: the remaining activity at 3.75 µM in test [1] (Well no.=5781) is 96.3%. For the same compound, the remaining activity at 1.25 µM in test [2] (Well no.=5781) came out at 97%.

As for `COc1ccc(Nc2nc(N)nc(CN3CCCCC3)n2)cc1` [BRD32048], the remaining activity at 3.75 µM in test [1] (Well no.=5572) came out at 98.9%. Also, in test [2] (Well no.=5572), the remaining activity at 1.25 µM stood at 91.7%.

For the compound `O=C(NO)c1cccc(C(=O)NCCc2ccccc2)c1` [BRD73954], the remaining activity at 3.75 µM in test [1] (Well no.=5588) was determined as 92.7%. Besides, the remaining activity at 1.25 µM in test [2] (Well no.=5588) came to 99.7%.

Turning to `OC(CN1CCN(c2cccc(Cl)c2)CC1)C(c1ccccc1)c1ccccc1` (stereo not drawn) [BRL 15572], the remaining activity at 3.75 µM in test [1] (Well no.=131) was 98.1%. In test [2] (Well no.=131), the remaining activity at 1.25 µM amounted to 95.9%.

For the compound `CN1CCC(c2c[nH]c3ccc(O)cc23)CC1` [BRL 54443 maleate], in test [1] (Well no.=231), the remaining activity at 3.75 µM amounted to 101%. Moreover, the remaining activity at 1.25 µM in test [2] (Well no.=231) was 101%.

Take `CN1CCC(c2c[nH]c3ccc(O)cc23)CC1` [BRL 54443]: the remaining activity at 3.75 µM in test [1] (Well no.=5171) amounted to 89.8%; in test [1] (Well no.=6945), 93.5%. Also, the remaining activity at 1.25 µM amounted to 98% in test [2] (Well no.=5171) and 103% in test [2] (Well no.=6945).

Take `OC(CN1CCN(c2cccc(Cl)c2)CC1)C(c1ccccc1)c1ccccc1` (stereo not drawn) [BRL-15572]: the remaining activity at 3.75 µM in test [1] (Well no.=5336) is 94.2%. Besides, the remaining activity at 1.25 µM in test [2] (Well no.=5336) turned out to be 94.9%.

`O=C(Oc1cc(S(=O)(=O)c2ccccc2)ccc1[N+](=O)[O-])c1ccc(Cl)cc1` [BTB06584]: the remaining activity at 3.75 µM in test [1] (Well no.=5965) was found to be 102%. For the same compound, in test [2] (Well no.=5965), the remaining activity at 1.25 µM was 102%.

As to `c1ccc2sc(C3(N4CCCCC4)CCCCC3)cc2c1` [BTCP hydrochloride], the remaining activity at 3.75 µM in test [1] (Well no.=325) was 96.6%. The remaining activity at 1.25 µM in test [2] (Well no.=325) is 101%.

Take `CCN1C(=O)/C(=C/c2ccccc2)SC1=S` [BTR-1]: in test [1] (Well no.=7124), the remaining activity at 3.75 µM worked out at 95.2%. For the same compound, the remaining activity at 1.25 µM in test [2] (Well no.=7124) was 99.8%.

Turning to `c1ccc2nc(C3=NCCN3)ccc2c1` [BU224 hydrochloride], the remaining activity at 3.75 µM in test [1] (Well no.=39) is 105%. The remaining activity at 1.25 µM in test [2] (Well no.=39) came out at 102%.

Regarding `C=CC[N+](C)(C)c1ccc(CCC(=O)CCc2ccc([N+](C)(C)CC=C)cc2)cc1` [BW 284c51], in test [1] (Well no.=152), the remaining activity at 3.75 µM was determined as 101%. In addition, in test [2] (Well no.=152), the remaining activity at 1.25 µM worked out at 98.6%.

For the compound `CC(N)Cc1c[nH]c2ccc(OCc3cccs3)cc12` (stereo not drawn) [BW 723C86], the remaining activity at 3.75 µM in test [1] (Well no.=279) was 98.9%. Also, in test [2] (Well no.=279), the remaining activity at 1.25 µM was found to be 98.7%.

In the case of `CC(/C=C/c1cccc(Oc2ccc(F)cc2)c1)N(O)C(N)=O` (stereo not drawn) [BWB70C], the remaining activity at 3.75 µM in test [1] (Well no.=221) amounted to 102%. In addition, the remaining activity at 1.25 µM in test [2] (Well no.=221) amounted to 103%.

On to `O=C(NCCCNc1nc(Nc2cccc(NC(=O)N3CCCC3)c2)ncc1I)c1cccs1` [BX795], for which the remaining activity at 3.75 µM in test [1] (Well no.=2931) came out at 99.2%. For the same compound, the remaining activity at 1.25 µM in test [2] (Well no.=2931) stood at 99%.

Turning to `O=C(Nc1cccc(Nc2ncc(Br)c(NCCc3cnc[nH]3)n2)c1)N1CCCC1` [BX912], in test [1] (Well no.=2979), the remaining activity at 3.75 µM came out at 93.8%. Further, the remaining activity at 1.25 µM in test [2] (Well no.=2979) stood at 95.2%.

As to `Cc1nc(NC(=O)N2CCC[C@H]2C(N)=O)sc1-c1ccnc(C(C)(C)C(F)(F)F)c1` [BYL719], the remaining activity at 3.75 µM in test [1] (Well no.=5163) came to 104%. Moreover, the remaining activity at 1.25 µM in test [2] (Well no.=5163) is 102%.

With `CC(=O)O[C@H]1C(=O)[C@@]2(C)[C@H]([C@H](OC(=O)c3ccccc3)[C@]3(O)C[C@H](O)C(C)=C1C3(C)C)[C@]1(OC(C)=O)CO[C@@H]1C[C@@H]2O` [Baccatin III], the remaining activity at 3.75 µM in test [1] (Well no.=3099) came out at 99.5%. Further, in test [2] (Well no.=3099), the remaining activity at 1.25 µM worked out at 97.9%.

Regarding `O=c1cc(-c2ccccc2)oc2cc(O)c(O)c(O)c12` [Baicalein], the remaining activity at 3.75 µM in test [1] (Well no.=3087) was determined as 101%; in test [1] (Well no.=3942), 104%. The remaining activity at 1.25 µM in test [2] (Well no.=3087) turned out to be 103%; in test [2] (Well no.=3942) it was 108%.

With `O=C(O)[C@H]1O[C@@H](Oc2cc3oc(-c4ccccc4)cc(=O)c3c(O)c2O)[C@H](O)[C@@H](O)[C@@H]1O` [Baicalin], in test [1] (Well no.=5190), the remaining activity at 3.75 µM was 100%. Besides, the remaining activity at 1.25 µM in test [2] (Well no.=5190) stood at 101%.

Take `C=C[C@@](C)(/C=C/c1ccc(O)cc1)CCC=C(C)C` [Bakuchiol]: the figures for the remaining activity at 3.75 µM in test [1] (Well no.=3520) and in test [1] (Well no.=4001) were 101% and 97.7%, respectively. Further, the remaining activity at 1.25 µM in test [2] (Well no.=4001) amounted to 101%.

As to `CNC1CCCN(c2c(F)cc3c(=O)c(C(=O)O)cn(C4CC4)c3c2OC)C1` (stereo not drawn) [Balofloxacin], the remaining activity at 3.75 µM in test [1] (Well no.=5058) worked out at 97.3%. The remaining activity at 1.25 µM in test [2] (Well no.=5058) stood at 95.8%.

Consider `O=C(O)CCNC(=O)c1ccc(/N=N/c2ccc(O)c(C(=O)O)c2)cc1` [Balsalazide], for which the remaining activity at 3.75 µM in test [1] (Well no.=7362) stood at 92.1%. Besides, the remaining activity at 1.25 µM in test [2] (Well no.=7362) was 96.6%.

As for `CN(C)C(=O)Oc1cc(OC(=O)N(C)C)cc(C(O)CNC(C)(C)C)c1` (stereo not drawn) [Bambuterol (hydrochloride)], the remaining activity at 3.75 µM in test [1] (Well no.=6617) came out at 101%. The remaining activity at 1.25 µM in test [2] (Well no.=6617) turned out to be 100%.

Consider `CN(C)C(=O)Oc1cc(OC(=O)N(C)C)cc(C(O)CNC(C)(C)C)c1` (stereo not drawn) [Bambuterol], for which the remaining activity at 3.75 µM in test [1] (Well no.=1770) is 92.8%. Besides, the remaining activity at 1.25 µM in test [2] (Well no.=1770) is 92.4%.
